Measurements: PubChem BioAssay AID2060611 (Molecular Pharmacology Branch, DTP, NCI, 2025)

Tested on: 628569-122-R-J1-PDC complex spheroid viability
Assay: Anticancer human tumor 628569-122-R-J1-PDC patient-derived head and neck squamous carcinoma cell line growth inhibition [CLK]
Conditions: for IC50: curve of first compound; for viability, T/C: stronger effect = lower value
Outline: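 Multi-cell-type spheroids combined patient-derived tumor cells with HUVEC endothelial cells and human mesenchymal stem cells. Paired agents were dosed in half-log steps down from about clinical Cmax, or from 10 microM where Cmax was unknown.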

[1] = second compound 0.0316 µM, first compound 0.0316 µM
[2] = second compound 0.0316 µM, first compound 0.1 µM
[3] = second compound 0.0316 µM, first compound 0.316 µM
[4] = second compound 0.0316 µM, first compound 1 µM
[5] = second compound 0.0316 µM, first compound 3.16 µM
[6] = second compound 0.0316 µM, first compound 10 µM
[7] = second compound 0.1 µM, first compound 0.0316 µM
[8] = second compound 0.1 µM, first compound 0.1 µM
[9] = second compound 0.1 µM, first compound 0.316 µM
[10] = second compound 0.1 µM, first compound 1 µM
[11] = second compound 0.1 µM, first compound 3.16 µM
[12] = second compound 0.1 µM, first compound 10 µM
[13] = second compound 0.316 µM, first compound 0.0316 µM
[14] = second compound 0.316 µM, first compound 0.1 µM
[15] = second compound 0.316 µM, first compound 0.316 µM
[16] = second compound 0.316 µM, first compound 1 µM
[17] = second compound 0.316 µM, first compound 3.16 µM
[18] = second compound 0.316 µM, first compound 10 µM
[19] = second compound 1 µM, first compound 0.0316 µM
[20] = second compound 1 µM, first compound 0.1 µM
[21] = second compound 1 µM, first compound 0.316 µM
[22] = second compound 1 µM, first compound 1 µM
[23] = second compound 1 µM, first compound 3.16 µM
[24] = second compound 1 µM, first compound 10 µM
[25] = second compound 3.16 µM, first compound 0.0316 µM
[26] = second compound 3.16 µM, first compound 0.1 µM
[27] = second compound 3.16 µM, first compound 0.316 µM
[28] = second compound 3.16 µM, first compound 1 µM
[29] = second compound 3.16 µM, first compound 3.16 µM
[30] = second compound 3.16 µM, first compound 10 µM
[31] = second compound 10 µM, first compound 0.0316 µM
[32] = second compound 10 µM, first compound 0.1 µM
[33] = second compound 10 µM, first compound 0.316 µM
[34] = second compound 10 µM, first compound 1 µM
[35] = second compound 10 µM, first compound 3.16 µM
[36] = second compound 10 µM, first compound 10 µM
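Further: spheroids exposed to agents for seven days before readout.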
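Wherever viability, T/C is given: 100% = DMSO vehicle control viability.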

In the case of `CC(C)CC(NC(=O)C(Cc1ccccc1)NC(=O)c1cnccn1)B(O)O` (stereo unspecified) + CNC(=O)c1ccc(Nc2nc(OC3CCCC3)c3c(-c4ccc5nc(C)oc5c4)c[nH]c3n2)c(OC)c1, the IC50 (second compound 0.0316 µM) is reported as 4.63 nM, the IC50 (second compound 0.1 µM) is reported as 2.65 nM and the IC50 (second compound 0.316 µM) is reported as < 0.949 nM. The IC50 (second compound 1 µM) was < 0.949 nM, the IC50 (second compound 3.16 µM) was < 0.949 nM and the IC50 (second compound 10 µM) was < 0.949 nM. For the same compound, the viability, T/C (second compound 0.0316 µM, first compound 0.000949 µM) was 106%, the viability, T/C (second compound 0.0316 µM, first compound 0.003 µM) was 73.5% and the viability, T/C (second compound 0.0316 µM, first compound 0.00949 µM) was 11.5%. The viability, T/C (second compound 0.0316 µM, first compound 0.03 µM) was 2.71%, the viability, T/C (second compound 0.0316 µM, first compound 0.0949 µM) was 11.1% and the viability, T/C (second compound 0.0316 µM, first compound 0.3 µM) was 7.23%. For the same compound, the viability, T/C (second compound 0.1 µM, first compound 0.000949 µM) was 67.5%, the viability, T/C (second compound 0.1 µM, first compound 0.003 µM) was 47.9% and the viability, T/C (second compound 0.1 µM, first compound 0.00949 µM) was 9.96%. The viability, T/C (second compound 0.1 µM, first compound 0.03 µM) was 3.01%, the viability, T/C (second compound 0.1 µM, first compound 0.0949 µM) was 8.44% and the viability, T/C (second compound 0.1 µM, first compound 0.3 µM) was 6.5%. The viability, T/C (second compound 0.316 µM, first compound 0.000949 µM) was 48.9%, the viability, T/C (second compound 0.316 µM, first compound 0.003 µM) was 41.4% and the viability, T/C (second compound 0.316 µM, first compound 0.00949 µM) was 9.14%. The viability, T/C (second compound 0.316 µM, first compound 0.03 µM) was 2.35%, the viability, T/C (second compound 0.316 µM, first compound 0.0949 µM) was 4.07% and the viability, T/C (second compound 0.316 µM, first compound 0.3 µM) was 3.8%. It also gave a viability, T/C (second compound 1 µM, first compound 0.000949 µM) of 46.9%, a viability, T/C (second compound 1 µM, first compound 0.003 µM) of 29.3% and a viability, T/C (second compound 1 µM, first compound 0.00949 µM) of 4.76%. The viability, T/C (second compound 1 µM, first compound 0.03 µM) was 10.9%, the viability, T/C (second compound 1 µM, first compound 0.0949 µM) was 17.6% and the viability, T/C (second compound 1 µM, first compound 0.3 µM) was 13.2%. The viability, T/C (second compound 3.16 µM, first compound 0.000949 µM) was 46.5%, the viability, T/C (second compound 3.16 µM, first compound 0.003 µM) was 18% and the viability, T/C (second compound 3.16 µM, first compound 0.00949 µM) was 11.5%. It also gave a viability, T/C (second compound 3.16 µM, first compound 0.03 µM) of 21%, a viability, T/C (second compound 3.16 µM, first compound 0.0949 µM) of 9.26% and a viability, T/C (second compound 3.16 µM, first compound 0.3 µM) of 7.04%. The viability, T/C (second compound 10 µM, first compound 0.000949 µM) was 44.6%, the viability, T/C (second compound 10 µM, first compound 0.003 µM) was 19.1% and the viability, T/C (second compound 10 µM, first compound 0.00949 µM) was 9.08%. For the same compound, the viability, T/C (second compound 10 µM, first compound 0.03 µM) was 7.35%, the viability, T/C (second compound 10 µM, first compound 0.0949 µM) was 11.3% and the viability, T/C (second compound 10 µM, first compound 0.3 µM) was 12.8%.

`CC1COCCN1c1cc(C2(S(C)(=N)=O)CC2)nc(-c2ccnc3[nH]ccc23)n1` (stereo unspecified) + CNC(=O)c1ccc(Nc2nc(OC3CCCC3)c3c(-c4ccc5nc(C)oc5c4)c[nH]c3n2)c(OC)c1 gave an IC50 (second compound 0.0316 µM) of 930 nM, an IC50 (second compound 0.1 µM) of 2970 nM and an IC50 (second compound 0.316 µM) of 1380 nM. For the same compound, the IC50 (second compound 1 µM) was < 31.6 nM, the IC50 (second compound 3.16 µM) was < 31.6 nM and the IC50 (second compound 10 µM) was < 31.6 nM. It also gave a viability, T/C [1] of 103%, a viability, T/C [2] of 100% and a viability, T/C [3] of 67.5%. It also gave a viability, T/C [4] of 51.4%, a viability, T/C [5] of 45% and a viability, T/C [6] of 35.3%. The viability, T/C [7] was 66.2%, the viability, T/C [8] was 58.3% and the viability, T/C [9] was 56.1%. For the same compound, the viability, T/C [10] was 54.5%, the viability, T/C [11] was 54% and the viability, T/C [12] was 40%. For the same compound, the viability, T/C [13] was 45%, the viability, T/C [14] was 64.8% and the viability, T/C [15] was 50.9%. For the same compound, the viability, T/C [16] was 52.3%, the viability, T/C [17] was 44.7% and the viability, T/C [18] was 35.6%. It also gave a viability, T/C [19] of 45.1%, a viability, T/C [20] of 46.2% and a viability, T/C [21] of 40.4%. The viability, T/C [22] was 38.3%, the viability, T/C [23] was 41.8% and the viability, T/C [24] was 33.8%. It also gave a viability, T/C [25] of 44.1%, a viability, T/C [26] of 55.3% and a viability, T/C [27] of 47.2%. The viability, T/C [28] was 37.7%, the viability, T/C [29] was 36.7% and the viability, T/C [30] was 32%. It also gave a viability, T/C [31] of 44.2%, a viability, T/C [32] of 43.7% and a viability, T/C [33] of 39.7%. The viability, T/C [34] was 40.4%, the viability, T/C [35] was 39% and the viability, T/C [36] was 29.4%.

With `O=C(c1cc(Cc2n[nH]c(=O)c3ccccc23)ccc1F)N1CCN(C(=O)C2CC2)CC1` + CNC(=O)c1ccc(Nc2nc(OC3CCCC3)c3c(-c4ccc5nc(C)oc5c4)c[nH]c3n2)c(OC)c1 the IC50 (second compound 0.0316 µM) was > 10000 nM, the IC50 (second compound 0.1 µM) was > 10000 nM and the IC50 (second compound 0.316 µM) was 1980 nM. The IC50 (second compound 1 µM) was < 31.6 nM, the IC50 (second compound 3.16 µM) was < 31.6 nM and the IC50 (second compound 10 µM) was 31.6 nM. It also gave a viability, T/C [1] of 99.7%, a viability, T/C [2] of 105% and a viability, T/C [3] of 102%. It also gave a viability, T/C [4] of 81.9%, a viability, T/C [5] of 103% and a viability, T/C [6] of 61.7%. It also gave a viability, T/C [7] of 63.2%, a viability, T/C [8] of 60% and a viability, T/C [9] of 60.7%. For the same compound, the viability, T/C [10] was 59.6%, the viability, T/C [11] was 62.8% and the viability, T/C [12] was 41.7%. For the same compound, the viability, T/C [13] was 50.8%, the viability, T/C [14] was 55.5% and the viability, T/C [15] was 56.6%. The viability, T/C [16] was 51.9%, the viability, T/C [17] was 47.5% and the viability, T/C [18] was 39.7%. It also gave a viability, T/C [19] of 39.8%, a viability, T/C [20] of 49.3% and a viability, T/C [21] of 47.5%. For the same compound, the viability, T/C [22] was 47%, the viability, T/C [23] was 45.2% and the viability, T/C [24] was 33.2%. For the same compound, the viability, T/C [25] was 43.7%, the viability, T/C [26] was 44.4% and the viability, T/C [27] was 41.8%. The viability, T/C [28] was 41.2%, the viability, T/C [29] was 42.5% and the viability, T/C [30] was 31.5%. It also gave a viability, T/C [31] of 46.6%, a viability, T/C [32] of 41.8% and a viability, T/C [33] of 49.3%. The viability, T/C [34] was 39.1%, the viability, T/C [35] was 56.1% and the viability, T/C [36] was 26.5%.
